In ChEMBL document CHEMBL4823319, “Design, synthesis, and biological evaluation of potent 1,2,3,4-tetrahydroisoquinoline derivatives as anticancer agents targeting NF-κB signaling pathway” (Bioorg Med Chem, 2021):
Values belong to the compound of their own block, whether it stands above or below them. The source made the active and inactive calls. No cut-off for these calls is given here.

Columns and labels:
MDA-MB-231 [1] = experiment: Anticancer activity against human MDA-MB-231 cells assessed as growth inhibition incubated for 48 hrs by sulforhodamine B method; type: functional
NUGC-3 = experiment: Anticancer activity against human […] cells assessed as growth inhibition incubated for 48 hrs by sulforhodamine B method; type: functional
NCI-H23 = experiment: Anticancer activity against human NCI-H23 cells assessed as growth inhibition incubated for 48 hrs by sulforhodamine B method; type: functional
ACHN = experiment: Anticancer activity against human […] cells assessed as growth inhibition incubated for 48 hrs by sulforhodamine B method; type: functional
HCT-15 = experiment: Anticancer activity against human HCT-15 cells assessed as growth inhibition incubated for 48 hrs by sulforhodamine B method; type: functional
PC-3 = experiment: Anticancer activity against human PC-3 cells assessed as growth inhibition incubated for 48 hrs by sulforhodamine B method; type: functional
[2] = Inhibition of NF-kappaB transcriptional activity in mouse RAW264.7 cells harbouring NF-kappaB-SEAP-NPT reporter plasmid assessed as reduction in LPS-induced SEAP expression incubated for 16 hr with LPS; type: cell-based
MDA-MB-231 [3] = experiment: Inhibition of NF-kappaB in human MDA-MB-231 cells assessed as reduction in LPS-induced NF-kappaB nuclear translocation at 10 uM treated with LPS for 24 hrs by Western blotting analysis; type: cell-based
MDA-MB-231 [4] = experiment: Inhibition of NF-kappaB in human MDA-MB-231 cells assessed as reduction in LPS-induced NF-kappaB nuclear translocation at 10 uM treated with LPS for 24 hrs by immunocytochemical analysis; type: cell-based

- GI50 (MDA-MB-231 [1]): 4.74 µM
- GI50 (NCI-H23): 4.4 µM
- GI50 (ACHN): 5.2 µM
- GI50 (HCT-15): 5.44 µM
- GI50 (PC-3): 6.59 µM
SMILES: O=C(Nc1ccc(C(F)(F)F)cc1)C1NCCc2ccccc21 (stereo unspecified)
- GI50 (NUGC-3): 4.22 µM

SMILES: O=C(Nc1cccc(C(F)(F)F)c1)C1NCCc2ccccc21 (stereo unspecified)
- GI50 (NUGC-3): > 10 µM

SMILES: O=C(Nc1ccccc1Cl)c1nccc2ccccc12
- GI50 (NUGC-3): > 10 µM

- IC50 [2]: 40.4 µM
SMILES: COc1cc2c(cc1O)CCC(C(=O)Nc1ccccc1)O2 (stereo unspecified)

SMILES: O=C(Nc1cccc(O)c1)C1c2ccccc2CCN1C(=O)c1ccc(Cl)cc1 (stereo unspecified)
- GI50 (NUGC-3): > 10 µM

SMILES: O=C(Nc1ccccc1O)C1c2ccccc2CCN1C(=O)c1ccc(Cl)cc1 (stereo unspecified)
- GI50 (NUGC-3): > 10 µM

SMILES: O=C(Nc1ccc(O)cc1)c1nccc2ccccc12
- GI50 (NUGC-3): > 10 µM

- GI50 (MDA-MB-231 [1]): 2.71 µM
- GI50 (NCI-H23): 2.02 µM
- GI50 (ACHN): 2.65 µM
- GI50 (HCT-15): 3.52 µM
- GI50 (PC-3): 2.56 µM
SMILES: O=C(Nc1cc(C(F)(F)F)cc(C(F)(F)F)c1)C1c2ccccc2CCN1C(=O)c1ccc(Cl)cc1 (stereo unspecified)
- GI50 (NUGC-3): 2.83 µM

SMILES: O=C(Nc1ccccc1O)C1NCCc2ccccc21 (stereo unspecified)
- GI50 (NUGC-3): > 10 µM

- GI50 (MDA-MB-231 [1]): 5.05 µM
- GI50 (NCI-H23): 3.39 µM
- GI50 (ACHN): 5.32 µM
- GI50 (HCT-15): 5.73 µM
- GI50 (PC-3): 4.25 µM
SMILES: O=C(Nc1ccc(O)cc1)C1NCCc2ccccc21 (stereo unspecified)
- GI50 (NUGC-3): 4.37 µM

SMILES: COc1cccc(NC(=O)c2nccc3ccccc23)c1
- GI50 (NUGC-3): > 10 µM

SMILES: O=C(Nc1cccc(C(F)(F)F)c1)c1nccc2ccccc12
- GI50 (NUGC-3): > 10 µM

SMILES: O=C(Nc1ccccc1C(F)(F)F)c1nccc2ccccc12
- GI50 (NUGC-3): > 10 µM

- GI50 (MDA-MB-231 [1]): 4.35 µM
- GI50 (NCI-H23): 3.34 µM
- GI50 (ACHN): 3.47 µM
- GI50 (HCT-15): 5.11 µM
- GI50 (PC-3): 4.49 µM
SMILES: O=C(Nc1ccc(C(F)(F)F)cc1)C1c2ccccc2CCN1C(=O)c1ccc(Cl)cc1 (stereo unspecified)
- GI50 (NUGC-3): 4.2 µM

SMILES: O=C(Nc1ccccc1C(F)(F)F)C1c2ccccc2CCN1C(=O)c1ccc(Cl)cc1 (stereo unspecified)
- GI50 (NUGC-3): > 10 µM

SMILES: COc1ccccc1NC(=O)c1nccc2ccccc12
- GI50 (NUGC-3): > 10 µM

- GI50 (MDA-MB-231 [1]): 0.086 µM
- GI50 (NCI-H23): 0.072 µM
- GI50 (ACHN): 0.088 µM
- GI50 (HCT-15): 0.076 µM
- GI50 (PC-3): 0.09 µM
SMILES: COc1cccc2c1C(=O)c1c(O)c3c(c(O)c1C2=O)C[C@@](O)(C(=O)CO)C[C@@H]3O[C@H]1C[C@H](N)[C@H](O)[C@H](C)O1 [DOXORUBICIN]

SMILES: O=C(Nc1cc(C(F)(F)F)cc(C(F)(F)F)c1)C1NCCc2ccccc21 (stereo unspecified)
- GI50 (NUGC-3): > 10 µM

SMILES: O=C(Nc1ccccc1C(F)(F)F)C1NCCc2ccccc21 (stereo unspecified)
- GI50 (NUGC-3): > 10 µM

SMILES: O=C(Nc1cc(C(F)(F)F)cc(C(F)(F)F)c1)c1nccc2ccccc12
- GI50 (NUGC-3): > 10 µM

SMILES: O=C(Nc1cccc(O)c1)C1NCCc2ccccc21 (stereo unspecified)
- GI50 (NUGC-3): > 10 µM

SMILES: O=C(Nc1ccc(C(F)(F)F)cc1)c1nccc2ccccc12
- GI50 (NUGC-3): > 10 µM

- GI50 (MDA-MB-231 [1]): 4.9 µM
- GI50 (NCI-H23): 4.34 µM
- GI50 (ACHN): 3.67 µM
- GI50 (HCT-15): 6.08 µM
- GI50 (PC-3): 3.48 µM
SMILES: COc1ccc(NC(=O)C2c3ccccc3CCN2C(=O)c2ccc(Cl)cc2)cc1 (stereo unspecified)
- GI50 (NUGC-3): 3.63 µM

- GI50 (MDA-MB-231 [1]): 3.21 µM
- GI50 (NCI-H23): 2.42 µM
- GI50 (ACHN): 2.96 µM
- GI50 (HCT-15): 3.62 µM
- GI50 (PC-3): 2.89 µM
SMILES: COc1cccc(NC(=O)C2c3ccccc3CCN2C(=O)c2ccc(Cl)cc2)c1 (stereo unspecified)
- GI50 (NUGC-3): 2.14 µM

SMILES: COc1ccccc1NC(=O)C1NCCc2ccccc21 (stereo unspecified)
- GI50 (NUGC-3): > 10 µM

SMILES: O=C(Nc1cccc(Cl)c1)c1nccc2ccccc12
- GI50 (NUGC-3): > 10 µM

SMILES: O=C(Nc1ccc(Cl)cc1)c1nccc2ccccc12
- GI50 (NUGC-3): > 10 µM

SMILES: COc1ccc(NC(=O)c2nccc3ccccc23)cc1
- GI50 (NUGC-3): > 10 µM

SMILES: COc1cccc(NC(=O)C2NCCc3ccccc32)c1 (stereo unspecified)
- GI50 (NUGC-3): > 10 µM

- GI50 (MDA-MB-231 [1]): 2.28 µM
- GI50 (NCI-H23): 1.94 µM
- GI50 (ACHN): 1.98 µM
- GI50 (HCT-15): 1.74 µM
- GI50 (PC-3): 2.01 µM
SMILES: COc1ccccc1NC(=O)C1c2ccccc2CCN1C(=O)c1ccc(Cl)cc1 (stereo unspecified)
- GI50 (NUGC-3): 1.59 µM
- inhibition (MDA-MB-231 [3]): Dose-Dependent Effect
- inhibition (MDA-MB-231 [4]): Active

SMILES: O=C(Nc1ccc(O)cc1)C1c2ccccc2CCN1C(=O)c1ccc(Cl)cc1 (stereo unspecified)
- GI50 (NUGC-3): > 10 µM

SMILES: O=C(Nc1ccccc1O)c1nccc2ccccc12
- GI50 (NUGC-3): > 10 µM

SMILES: O=C(Nc1cccc(C(F)(F)F)c1)C1c2ccccc2CCN1C(=O)c1ccc(Cl)cc1 (stereo unspecified)
- GI50 (NUGC-3): > 10 µM

SMILES: COc1ccc(NC(=O)C2NCCc3ccccc32)cc1 (stereo unspecified)
- GI50 (NUGC-3): > 10 µM

SMILES: O=C(Nc1cccc(O)c1)c1nccc2ccccc12
- GI50 (NUGC-3): > 10 µM
